Measurements taken from US20230339871A1, “COMPOUNDS AND METHODS OF MODULATING 17B-HYDROXYSTEROID DEHYDROGENASE TYPE 13” (METREA BIOSCIENCES, INC., priority 2020, published 2023).
One block for each compound: values may come before it.

Columns and labels:
[1] = target: T1, recombinant human full-length HSD17B13 protein (Homo sapiens, UniProt Q7Z5P4); test: HSD17B13 96 luminescence inhibition assay (NAD(P)H-Glo); assay type: biochemical
T1 construct: recombinant human full-length HSD17B13 protein; 6xHis (C); made in house; host or cells: HEK293E-253/FH
T1 sequence (Q7Z5P4 20-300): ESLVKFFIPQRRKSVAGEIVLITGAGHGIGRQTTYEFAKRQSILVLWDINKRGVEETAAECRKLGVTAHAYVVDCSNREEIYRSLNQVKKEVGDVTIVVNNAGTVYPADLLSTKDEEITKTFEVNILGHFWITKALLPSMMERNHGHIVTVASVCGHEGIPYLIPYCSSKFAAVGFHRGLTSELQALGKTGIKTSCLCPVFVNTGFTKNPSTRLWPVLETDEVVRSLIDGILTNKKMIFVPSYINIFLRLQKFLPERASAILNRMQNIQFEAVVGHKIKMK
Description: Compounds of the present disclosure were tested for inhibition of HSD17B13 using the following protocol. Briefly, recombinant human full-length HSD17B13 protein with a 6X-C-terminal His tag was expressed in cell line HEK293E-253/FH and purified using Ni^2+-affinity purification. Enzymatic activity was determined through the production of NADH using the NAD(P)H-Glo Detection System (Promega). The inhibitory activity of test compounds was determined in reactions performed at 30° C. in assay buffer consisting of 25 mM EPPS (8.0), 125 mM NaCl, 0.03% Triton X-100, 0.03% BSA, with […] steroid substrate (1,3,5(10), 7-estratetraen-3, 17b-diol (Steraloids E0580)) added from a 2.5 mM DMSO stock and 500 mM NAD. The final percentage of DMSO was 4.5%. After a one-hour incubation, a 20% volume of luciferase Glo-reagent was added and light units captured on a Victor V Plate Reader (Perkin Elmer).
Concentration-response curves for inhibitors were normalized to control samples containing enzyme only (negative control) and sample without enzyme (positive control). 50% inhibition (IC50) values were determined using a nonlinear least squares fit of the data to a four-parameter equation using Prism 6.0 (GraphPad Software, San Diego).

IL-32 = IL-32 gene expression in HepG2 cells overexpressing HSD17B13 under fatty acid challenge; assay type: cell-based, human
Description: (§1) To examine the effect of HSD17B13 inhibitors on inflammatory cytokine expression HepG2 cells were exposed to various concentrations of HSD17B13 inhibitors. Briefly, HepG2 cells, an immortalized human liver cancer cell line, were modified to overexpress HSD17B13. Cells were grown in EMEM (ATCC) with 10% FBS and penicillin/streptomycin. One day prior to transfection 750,000 cells were plated per well in a 6 well plate and cultured overnight. […] of pCMV6-Entry-HSD17B13 or empty vector (Origene) were transfected using Lipofectamine 3000 (Invitrogen) and the cells were cultured for 24 hours. Cells were split into selection media ([…] G418 (Gibco)) and a stable pool was established and verified by qPCR and western blotting using an anti-Flag antibody (Genscript). HepG2 cells overexpressing HSD17B13 or empty vector control, were seeded at 400,000 cells per well in 12 well plates and cultured overnight. Media was replaced with serum-free EMEM and cultured an additional night. A 12 mM fatty acid stock of oleic acid/palmitate at a 2:1 ratio was prepared in 10% fatty acid free BSA (Sigma) by combining 8 mM oleic acid and 4 mM palmitate and rotating overnight at 30° C. The solution was then sonicated for an additional 45 minutes to solubilize.
[…] The cells were lysed in RLT buffer and RNA purified using a Qiagen RNeasy mini kit. RNA quality and concentration were determined on a Nanodrop. cDNA was synthesized from 1 μg RNA using iScript reverse transcription supermix (Biorad) and rtPCR performed with 1 μl cDNA using SsoAdvanced Universal Probes Supermix (Biorad). Taqman probes (Thermo Fisher) were used to look at effects of fatty acids and HSD17B13 inhibitors on IL-8 and IL-32 gene expression using GAPDH as an endogenous control.

HepG2 cells = test: Toxicity to HepG2 cells in the cytokine expression experiment; assay type: cell-based, human; conditions: 30 μM
Description: as §1, with “A 12 mM fatty acid stock of oleic acid/palmitate at a 2:1 ratio was prepared in 10% fatty acid free BSA (Sigma) by combining 8 mM oleic acid and 4 mM palmitate and rotating overnight at 30° C. The solution was then sonicated for an additional 45 minutes to solubilize.” left out
(§2) […] RNA quality and concentration were determined on a Nanodrop. cDNA was synthesized from 1 μg RNA using iScript reverse transcription supermix (Biorad) and rtPCR performed with 1 μl cDNA using SsoAdvanced Universal Probes Supermix (Biorad). […]

IL-8 = IL-8 gene expression in HepG2 cells overexpressing HSD17B13 under fatty acid challenge; assay type: cell-based, human
Description: as §1, with “A 12 mM fatty acid stock of oleic acid/palmitate at a 2:1 ratio was prepared in 10% fatty acid free BSA (Sigma) by combining 8 mM oleic acid and 4 mM palmitate and rotating overnight at 30° C. The solution was then sonicated for an additional 45 minutes to solubilize.” left out
as §2

[2] = RESOLVE-IT, NCT02704403; cited from earlier work
[3] = 3 µM, 10 µM, or 30 µM, saturated fatty acid NASH challenge
[4] = 3-hour exposure to 3 μM, 10 μM, or 30 μM, fold change relative to untreated cells

IC50 [1]: ≤ 1 µM
SMILES: CS(=O)(=O)c1cccc(CN2C(=O)S/C(=C\c3c(F)cc(F)c(O)c3F)C2=O)c1 [Compound 5, (Z)-3-(3-(methylsulfonyl)benzyl)-5-(2,4,6-trifluoro-3-hydroxybenzylidene) thiazolidine-2,4-dione]
reduction in IL-32 expression (IL-32; 3 μM dose): 60-70%
expression of IL-32 (FIG. 1B) (IL-32; [3]): decreased expression
relative expression levels of IL-32 (IL-32; [4]): decreased
toxicity to the cells (HepG2 cells): some toxicity
expression of IL-8 (FIG. 1A) (IL-8; [3]): decreased expression
relative expression levels of IL-8 (IL-8; [4]): decreased

IC50 [1]: ≤ 1 µM
SMILES: O=C1S/C(=C\c2ccc3nn[nH]c3c2)C(=O)N1Cc1cccc(O)c1 [Compound 38, (Z)-5-((1H-benzo[d][1,2,3]triazol-6-yl)methylene)-3-(3-hydroxybenzyl)thiazolidine-2,4-dione]

IC50 [1]: 1 to 5 µM
SMILES: COc1cccc(CNC(=O)c2ccc3cc(F)c(O)c(F)c3n2)c1 [Compound 39, 6,8-difluoro-7-hydroxy-N-[(3-methoxyphenyl)methyl]quinoline-2-carboxamide]

SMILES: CSc1ccc(C(=O)/C=C/c2cc(C)c(OC(C)(C)C(=O)O)c(C)c2)cc1 [Elafibranor]
Status (as of May 2020) [2]: Completed - failed
